Data published in patent US6426355B1, “Heterocyclic carboxamide-containing thiourea inhibitors of herpes viruses containing phenylenediamine group” (American Home Products, priority 1998, dated 2002).
Converted amounts (≈) assume the structure as drawn.

Legend:
[1] = test system: HCMV recombinant mutant virus (RV145); assay: HCMV microtiter plate assay (beta-glucuronidase reporter); type: cell-based, Human Cytomegalovirus; details: for IC50 (ug/ml) HCMV: HCMV in human foreskin fibroblasts; for IC50: Human betaherpesvirus 5, Fibroblast, read-out: IC50 (ug/ml) HCMV
Procedure, shortened: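 Replication was read out as virus-encoded β-glucuronidase activity, measured with a chromogenic or fluorogenic glucuronide substrate in cell lysates at 96 h post-infection. Infection of human foreskin fibroblasts with RV145 took place with compound present. IC50 was derived from a range of inhibitor amounts.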

HSV-1 = assay: HSV Antiviral (ELISA) assay; type: cell-based; details: for IC50 (ug/ml) HSV: HSV-1 in Vero cells; for IC50: Human alphaherpesvirus 1, HSV-1 in Vero cells, read-out: IC50 (ug/ml) HSV
Procedure, shortened: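 Replication measured as glycoprotein D signal in fixed cells: anti-gD antibody plus β-galactosidase-linked secondary, fluorogenic substrate read at 365/450 nm. Vero cells (2% FBS DMEM) received compound 30 min pre-infection, HSV-1 MOI 0.006, ~24 h incubation; IC50 relative to no-compound fluorescence.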

VZV strain Ellen = assay: VZV Antiviral (ELISA) assay; type: cell-based; details: for IC50: Human alphaherpesvirus 3, VZV strain Ellen in HFF cells, read-out: IC50 (ug/ml) VZV; for inhibition at 10 µg/mL: Human alphaherpesvirus 3, read-out: % inhibition 10 ug/ml VZV, at 10 ug/ml, VZV strain Ellen in HFF cells
Procedure, shortened: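 HFF cells infected overnight with VZV Ellen at MOI <0.1, mixed with uninfected cells, were seeded with compound and grown 3 days at 37° C in DMEM/2% FBS. Viral glycoprotein II was detected by ELISA with β-galactosidase-linked secondary; IC50 from fluorescence versus no-compound wells.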

Row | Structure (SMILES) | IC50 (ug/ml) HCMV [1] | IC50 (ug/ml) HSV (HSV-1) | IC50 (ug/ml) VZV (VZV strain Ellen; VZV strain Ellen in HFF cells) | % inhibition 10 ug/ml VZV (VZV strain Ellen; at 10 ug/ml, VZV strain Ellen in HFF cells) | IC50 [1] | IC50 (HSV-1) | IC50 (VZV strain Ellen) | inhibition at 10 µg/mL (VZV strain Ellen)
1 | O=C(Nc1ccc(NC(=S)NCc2ccc(N3CCCCC3)c(C(F)(F)F)c2)cc1)c1csnn1 [Example 601] | 0.0011 µg/mL (≈ 0.00211 µM) | >10 µg/mL | >10 µg/mL |  |  |  |  | 
2 | CN(C)c1ccc(CNC(=S)Nc2ccc(NC(=O)c3csnn3)cc2)cc1C(F)(F)F [Example 602] | 0.0015 µg/mL (≈ 0.00312 µM) | >10 µg/mL | >10 µg/mL |  |  |  |  | 
3 | Nc1ccc(CCNC(=S)Nc2ccc(NC(=O)c3ccco3)cc2)cc1 [Example 603] | >0.5 µg/mL | >10 µg/mL | >10 µg/mL |  |  |  |  | 
4 | O=C(Nc1ccc(NC(=S)NCCc2ccc(Br)cc2)cc1)c1ccco1 [Example 604] | 0.025 µg/mL (≈ 0.0563 µM) | >10 µg/mL | 10 µg/mL (≈ 22.5 µM) |  |  |  |  | 
5 | Cc1ccc(CCNC(=S)Nc2ccc(NC(=O)c3ccco3)cc2)cc1 [Example 605] | 0.062 µg/mL (≈ 0.163 µM) | >10 µg/mL | 10 µg/mL (≈ 26.4 µM) |  |  |  |  | 
6 | O=C(Nc1ccc(NC(=S)NCCc2ccc(Br)cc2)cc1)c1csnn1 [Example 606] | 0.0023 µg/mL (≈ 0.00497 µM) | >10 µg/mL | >10 µg/mL |  |  |  |  | 
7 | COc1cccc(CCNC(=S)Nc2ccc(NC(=O)c3ccco3)cc2)c1 [Example 607] | 0.09 µg/mL (≈ 0.228 µM) | 8 µg/mL (≈ 20.2 µM) | >10 µg/mL |  |  |  |  | 
8 | O=C(Nc1ccc(NC(=S)NCCOc2ccccc2)cc1)c1ccco1 [Example 626] | 0.07 µg/mL (≈ 0.184 µM) | 10 µg/mL (≈ 26.2 µM) | >10 µg/mL |  |  |  |  | 
9 | O=C(Nc1ccc(NC(=S)NCCOc2ccccc2)cc1)c1csnn1 [Example 627] | 0.014 µg/mL (≈ 0.035 µM) | 10 µg/mL (≈ 25 µM) | >10 µg/mL |  |  |  |  | 
10 | O=C(Nc1ccc(CNC(=S)Nc2ccc(Cl)c(Cl)c2)cc1)c1csnn1 [Example 630] | 0.4 µg/mL (≈ 0.912 µM) | >10 µg/mL | 4 µg/mL (≈ 9.12 µM) |  |  |  |  | 
11 | O=C(Nc1ccc(CNC(=S)Nc2ccc(Cl)c(C(F)(F)F)c2)cc1)c1csnn1 [Example 631] | 0.15 µg/mL (≈ 0.318 µM) | 6 µg/mL (≈ 12.7 µM) | 6 µg/mL (≈ 12.7 µM) |  |  |  |  | 
12 | O=C(Nc1ccc(CNC(=S)Nc2cc(Cl)cc(Cl)c2)cc1)c1csnn1 [Example 635] | 0.15 µg/mL (≈ 0.342 µM) | >10 µg/mL | 4 µg/mL (≈ 9.12 µM) |  |  |  |  | 
13 | COc1cccc(CCNC(=S)Nc2ccc(NC(=O)c3csnn3)cc2)c1 [Example 637] | 0.014 µg/mL (≈ 0.0339 µM) | >10 µg/mL | >10 µg/mL |  |  |  |  | 
14 | Cc1ccc(CCNC(=S)Nc2ccc(NC(=O)c3csnn3)cc2)cc1 [Example 638] | 0.01 µg/mL (≈ 0.0252 µM) | >10 µg/mL | >10 µg/mL |  |  |  |  | 
15 | COc1ccc(CCNC(=S)Nc2ccc(NC(=O)c3csnn3)cc2)cc1OC [Example 639] | 0.07 µg/mL (≈ 0.158 µM) | >10 µg/mL | >10 µg/mL |  |  |  |  | 
16 | CC(=O)Nc1cc(Cl)cc(NC(=S)Nc2ccc(NC(=O)c3csnn3)cc2)c1 [Example 644] | 0.03 µg/mL (≈ 0.0671 µM) | >10 µg/mL | 8 µg/mL (≈ 17.9 µM) |  |  |  |  | 
17 | O=C(Nc1ccc(NC(=S)NCCc2ccc(Cl)c(Cl)c2)cc1)c1csnn1 [Example 645] | 0.003 µg/mL (≈ 0.00663 µM) | >10 µg/mL | 10 µg/mL (≈ 22.1 µM) |  |  |  |  | 
18 | CC(CCc1ccccc1)NC(=S)Nc1ccc(NC(=O)c2csnn2)cc1 (centres unmarked) [Example 646] | 0.03 µg/mL (≈ 0.0729 µM) | >10 µg/mL | 2.5 µg/mL (≈ 6.07 µM) |  |  |  |  | 

Row | Structure (SMILES) | IC50 (ug/ml) HCMV [1] | IC50 (ug/ml) HSV (HSV-1) | IC50 (ug/ml) VZV (VZV strain Ellen; VZV strain Ellen in HFF cells) | % inhibition 10 ug/ml VZV (VZV strain Ellen; at 10 ug/ml, VZV strain Ellen in HFF cells) | IC50 [1] | IC50 (HSV-1) | IC50 (VZV strain Ellen) | inhibition at 10 µg/mL (VZV strain Ellen)
19 | CC(NC(=S)Nc1ccc(NC(=O)c2csnn2)cc1)c1ccc(Br)cc1 (centres unmarked) [Example 647] | 0.007 µg/mL (≈ 0.0151 µM) | >10 µg/mL | 0.1 µg/mL (≈ 0.216 µM) |  |  |  |  | 
20 | CC(NC(=S)Nc1ccc(NC(=O)c2ccncc2)cc1)c1ccc(F)cc1 (centres unmarked) [Example 759] | >10 µg/mL | >10 µg/mL | 2 µg/mL (≈ 5.07 µM) |  |  |  |  | 
21 | O=C(Nc1ccc(NC(=S)NCCc2cc(F)cc(C(F)(F)F)c2)cc1)c1csnn1 [Example 762] | 0.002 µg/mL (≈ 0.00426 µM) | >10 µg/mL | 1.5 µg/mL (≈ 3.19 µM) |  |  |  |  | 
22 | O=C(Nc1ccc(NC(=S)NCCc2cc(C(F)(F)F)ccc2F)cc1)c1csnn1 [Example 767] | 0.006 µg/mL (≈ 0.0128 µM) | >10 µg/mL | 1 µg/mL (≈ 2.13 µM) |  |  |  |  | 
23 | CC(NC(=S)Nc1ccc(NC(=O)c2ccc3ccccc3n2)cc1)c1ccc(F)cc1 (centres unmarked) [Example 796] | 4 µg/mL (≈ 9 µM) | >10 µg/mL | >7.5 µg/mL |  |  |  |  | 
24 | O=C(Nc1ccc(NC(=S)Nc2cc(Cl)ccc2Cl)cc1)c1csnn1 [Example 866, [1,2,3,]Thiadiazole-4-carboxylic acid {4-[3-(2,5-dichloro-phenyl)-thioureido]-phenyl}-amide] | 0.035 µg/mL (≈ 0.0825 µM) | >10 µg/mL | >10 µg/mL | 50% |  |  |  | 
25 | COc1c(Cl)cc(NC(=S)Nc2ccc(NC(=O)c3ccco3)cc2)cc1Cl [Example 875, Furan-2-carboxylic acid {4-[3-(3,5-dichloro-4-methoxy-phenyl)-thioureido]-phenyl}-amide] |  |  |  |  | > 2.2 µg/mL | > 50 µg/mL | > 10 µg/mL | 18%
26 | COc1cc(OC)c(NC(=S)Nc2ccc(NC(=O)c3ccco3)cc2)cc1Br [Example 879, Furan-2-carboxylic acid {4-[3-(5-bromo-2,4-dimethoxy-phenyl)-thioureido]-phenyl}-amide] |  |  |  |  | 0.3 µg/mL (≈ 0.63 µM) | 4 µg/mL (≈ 8.4 µM) | 10 µg/mL (≈ 21 µM) | 65%
27 | COc1ccc(NC(=S)Nc2ccc(NC(=O)c3csnn3)cc2)cc1Cl [Example 888, [1,2,3]Thiadiazole-4-carboxylic acid {4-[3-(3-chloro-4-methoxy-phenyl)-thioureido]-phenyl}-amide] |  |  |  |  | 0.06 µg/mL (≈ 0.143 µM) | 6 µg/mL (≈ 14.3 µM) | > 10 µg/mL | 31%
28 | CSc1ccc(NC(=S)Nc2ccc(NC(=O)c3ccco3)cc2)cc1Cl [Example 897, Furan-2-carboxylic acid {4-[3-(3-chloro-4-methylsulfanyl-phenyl)-thioureido]-phenyl}-amide] |  |  |  |  | 0.037 µg/mL (≈ 0.0885 µM) | > 10 µg/mL | > 10 µg/mL | 62%
29 | CN(C)c1ccc(NC(=S)Nc2ccc(NC(=O)c3csnn3)cc2)cc1Cl [Example 902, [1,2,3]Thiadiazole-4-carboxylic acid {4-[3-(3-chloro-4-dimethylamino-phenyl)-thioureido]-phenyl}-amide] |  |  |  |  | 0.12 µg/mL (≈ 0.277 µM) | > 10 µg/mL | > 10 µg/mL | 10%
30 | CN1CCC(N(C)c2ccc(NC(=S)Nc3ccc(NC(=O)c4csnn4)cc3)cc2Cl)CC1 [Example 904, [1,2,3]Thiadiazole-4-carboxylic acid [4-(3-{3-chloro-4-[methyl-(1-methyl-piperidin-4-yl)-amino]-phenyl}-thioureido)-phenyl]-amide] |  |  |  |  | 0.4 µg/mL (≈ 0.775 µM) | 12 µg/mL (≈ 23.3 µM) | > 10 µg/mL | 58%
31 | CN(c1ccc(NC(=S)Nc2ccc(NC(=O)c3csnn3)cc2)cc1Cl)C1CCN(Cc2ccccc2)C1 (centres unmarked) [Example 905, [1,2,3]Thiadiazole-4-carboxylic acid [4-(3-{4-[(1-benzyl-pyrrolidin-3-yl)-methyl-amino]-3-chloro-phenyl}-thioureido)-phenyl]-amide] |  |  |  |  | 0.3 µg/mL (≈ 0.519 µM) | 4 µg/mL (≈ 6.92 µM) | 2 µg/mL (≈ 3.46 µM) | 82%
32 | COc1cc(C)c(Cl)cc1NC(=S)Nc1ccc(NC(=O)c2csnn2)cc1 [Example 907, [1,2,3]Thiadiazole-4-carboxylic acid {4-[3-(5-chloro-2-methoxy-4-methyl-phenyl)-thioureido]-phenyl}-amide] |  |  |  |  | 0.009 µg/mL (≈ 0.0207 µM) | > 10 µg/mL | > 10 µg/mL | 36%
33 | O=C(Nc1ccc(NC(=S)Nc2ccccc2)cc1)c1ccco1 [Example 911, Furan-2-carboxylic acid [4-(3-phenyl-thioureido)-phenyl]-amide] |  |  |  |  | 0.3 µg/mL (≈ 0.889 µM) | > 10 µg/mL | > 10 µg/mL | 25%
34 | O=C(Nc1ccc(NC(=S)Nc2ccccc2)cc1)c1csnn1 [Example 912, [1,2,3]Thiadiazole-4-carboxylic acid [4-(3-phenyl-thioureido)-phenyl]-amide] |  |  |  |  | 0.16 µg/mL (≈ 0.45 µM) | > 10 µg/mL | > 10 µg/mL | 0%
35 | CC(O)c1ccc(NC(=S)Nc2ccc(NC(=O)c3ccco3)cc2)cc1Cl (centres unmarked) [Example 917, Furan-2-carboxylic acid (4-{3-[3-chloro-4-(1-hydroxy-ethyl)-phenyl]-thioureido}-phenyl)-amide] |  |  |  |  | 0.2 µg/mL (≈ 0.481 µM) | 10 µg/mL (≈ 24 µM) | > 10 µg/mL | 
36 | Nc1cccc(NC(=S)Nc2ccc(NC(=O)c3csnn3)cc2)c1 [Example 918, [1,2,3]Thiadiazole-4-carboxylic acid {4-[3-(3-amino-phenyl)-thioureido]-phenyl}-amide] |  |  |  |  | 0.03 µg/mL (≈ 0.081 µM) | > 10 µg/mL | > 10 µg/mL | 
